Test results reported in US7476684B2, “Compounds for the treatment of neurological, psychiatric or pain disorders” (AstraZeneca AB, priority 2005, dated 2009).

How the values were obtained:
[1] = Moisture sorption / deliquescence of the salt versus relative humidity; type: physicochemical
[2] = Intrinsic dissolution rate, low-volume rotating disc method; type: physicochemical; settings: salt made at 1 g scale from ethanol; disc 0.07 cm^2, 500 rpm, 50 mL USP Phosphate buffer pH 6.8 at 37° C.
Experimental: The salt manufactured at 1 g scale from ethanol was further investigated for its intrinsic dissolution rate and compared to the free base of 4-(5-{(1R)-1-[5-(3-chlorophenyl)isoxazol-3-yl]ethoxy}-4-methyl-4H-1,2,4-triazol-3-yl)pyridine. […] Dissolution rates of the base and salt were measured with a low-volume rotating disc method. Discs were compressed from pure compound and centrically mounted in a disc holder with an exposed area of 0.07 cm^2. The disc holder rotated at 500 rpm immersed in 50 mL USP Phosphate buffer pH 6.8 at 37° C. The compound was analyzed UV-Online by a Spectrophotometer with a flow cell and a peristaltic pump with continuous circulation.

| SMILES | deliquesce at relative humidity ([1]; first batch, oiled salt recrystallised in ethanol) | deliquesce at relative humidity ([1]; second batch, salt manufactured from ethanol at 68° C.) | intrinsic dissolution rate as compared to the free base [2] | increased moisture sorption at relative humidity ([1]; crystalline hydrochloride salt) |
| --- | --- | --- | --- | --- |
| C[C@@H](Oc1nnc(-c2ccncc2)n1C)c1cc(-c2cccc(Cl)c2)on1.O=S(=O)(O)O [Example 18, 4-(5-{(1R)-1-[5-(3-chlorophenyl)isoxazol-3-yl]ethoxy}-4-methyl-4H-1,2,4-triazol-3-yl)pyridine sulphate] | 60-70 % relative humidity | 70-80 % RH | – | – |
| C[C@@H](Oc1nnc(-c2ccncc2)n1C)c1cc(-c2cccc(Cl)c2)on1.Cl [Example 17, 4-(5-{(1R)-1-[5-(3chlorophenyl)isoxazol-3-yl]ethoxy}-4-methyl-4H-1,2,4-triazol-3-yl)pyridine hydrochloride] | – | – | 1000 times | 90-95 % RH |
